According to patent US20240067632A1, “WEE1 Degrading Compounds and Uses Thereof” (Bristol-Myers Squibb Company, priority 2022, published 2024):

Key:
MKN45 cells = assay: MKN45 cell proliferation assay (Cell-Titer-Glo, 120 h); format: cell-based; details: for EC50: Homo sapiens, MKN-45, 120 h, Cell-Titer-Glo, growth inhibition, read-out: MKN45 Cell Prolif. 120 hr (EC50); for MKN45 Cell Prolif. 120 hr (Ymin-Obs): minimal percent of DMSO control observed in the concentrations tested
Outline: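 Growth inhibition was read as blank-corrected Cell-Titer-Glo luminescence expressed as percent DMSO control after 120 h at 37 C, 400 cells/well. Compounds tested in triplicate as 10-point half-log series from 1 or 10 uM, 0.1% DMSO; four-parameter fit gave EC50, and lowest observed percent control was reported as Ymin-obs.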

WEE1 = target: T1, WEE1 (Homo sapiens, UniProt P30291+Q96SW2); assay: WEE1-ePL degradation assay (LentiX-WEE1-ePL-GSPT1-ND cells, InCELL Hunter luminescence, 4 h); format: cell-based; details: 293T-LentiX WEE1-ePL cells; for 293T-LentiX WEE1-ePL Degradation 4 hr (Ymin): lower limit of the fit (0 = luciferase inhibitor, Ymax = DMSO control); for DC50: read-out: 293T-LentiX WEE1-ePL Degradation 4 hr (EC50)
T1 construct: C-terminal ePL-tagged (DiscoverX, Fremont, CA) full-length WEE1 expression construct; expressed in transfected cells; host or cells: LentiX-HEK293T (Invitrogen), lentiviral transduction; co-expressing GSPT1-GN (G576N, lacking the first 158 amino acids)
Outline: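 HEK293T cells stably expressing C-terminal ePL-tagged full-length WEE1, 2500 cells/well, treated 4 h at 37° C with a 10-point 3-fold series from 1 or 10 uM. Remaining WEE1-ePL read by InCELL Hunter luminescence after 30 min. EC50 came from a four-parameter logistic fit, with Ymax set from DMSO control.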

Row | Compound | EC50 (MKN45 cells) | 293T-LentiX WEE1-ePL Degradation 4 hr (Ymin) (WEE1) | DC50 (WEE1) | MKN45 Cell Prolif. 120 hr (Ymin-Obs) (MKN45 cells)
1 | Cc1ccc2c(F)c(CN3CC[C@H](Oc4ccc5c(c4)CN(C4CCC(=O)NC4=O)C5=O)C3)ccc2n1 (stereo partly drawn) [3-(5-{[(3S)-1-[(5-fluoro-2-methylquinolin-6-yl)methyl]pyrrolidin-3-yl]oxy}-1-oxo-2,3-dihydro-1H-isoindol-2-yl)piperidine-2,6-dione] | 0.00808 µM | 28.365 | 0.00151 µM | 9.22
2 | Cc1cccc2cnc(CN3CC[C@H](Oc4ccc5c(c4)CN(C4CCC(=O)NC4=O)C5=O)C3)cc12 (stereo partly drawn) [3-(5-{[(3S)-1-[(5-methylisoquinolin-3-yl)methyl]pyrrolidin-3-yl]oxy}-1-oxo-2,3-dihydro-1H-isoindol-2-yl)piperidine-2,6-dione] | 0.0861 µM | 31.91 | 0.00462 µM | 19.01
3 | O=C1CCC(N2Cc3cc(O[C@H]4CCN(Cc5cnc6ccc(F)cc6c5)C4)ccc3C2=O)C(=O)N1 (stereo partly drawn) [3-(5-{[(3S)-1-[(6-fluoroquinolin-3-yl)methyl]pyrrolidin-3-yl]oxy}-1-oxo-2,3-dihydro-1H-isoindol-2-yl)piperidine-2,6-dione] | 0.0645 µM | 30.015 | 0.00919 µM | 16.03
4 | CN1CCc2ncc(CN3CC[C@H](Oc4ccc5c(c4)CN(C4CCC(=O)NC4=O)C5=O)C3)cc2C1 (stereo partly drawn) [3-(5-{[(3S)-1-[(6-methyl-5,6,7,8-tetrahydro-1,6-naphthyridin-3-yl)methyl]pyrrolidin-3-yl]oxy}-1-oxo-2,3-dihydro-1H-isoindol-2-yl)piperidine-2,6-dione] | 5.05 µM | 34 | 0.216 µM | 33.405
5 | COc1ccc2cc(CN3CC[C@H](Oc4ccc5c(c4)CN(C4CCC(=O)NC4=O)C5=O)C3)nnc2c1 (stereo partly drawn) [3-(5-{[(3S)-1-[(7-methoxycinnolin-3-yl)methyl]pyrrolidin-3-yl]oxy}-1-oxo-2,3-dihydro-1H-isoindol-2-yl)piperidine-2,6-dione] | 0.0124 µM | 28 | 0.00548 µM | 7.52
6 | CN1CCc2c(cncc2CN2CC[C@H](Oc3ccc4c(c3)CN(C3CCC(=O)NC3=O)C4=O)C2)C1 (stereo partly drawn) [3-(5-{[(3S)-1-[(7-methyl-5,6,7,8-tetrahydro-2,7-naphthyridin-4-yl)methyl]pyrrolidin-3-yl]oxy}-1-oxo-2,3-dihydro-1H-isoindol-2-yl)piperidine-2,6-dione] | > 10 µM | 68 | 0.558 µM | 84.06
7 | Cc1ccc2cc(CN3CC[C@H](Oc4ccc5c(c4)CN(C4CCC(=O)NC4=O)C5=O)C3)ncc2c1 (stereo partly drawn) [3-(5-{[(3S)-1-[(7-methylisoquinolin-3-yl)methyl]pyrrolidin-3-yl]oxy}-1-oxo-2,3-dihydro-1H-isoindol-2-yl)piperidine-2,6-dione] | 0.0707 µM | 32.315 | 0.0122 µM | 15.68
8 | Cc1ccc2cc(CN3CC[C@H](Oc4ccc5c(c4)CN(C4CCC(=O)NC4=O)C5=O)C3)cc(F)c2n1 (stereo partly drawn) [3-(5-{[(3S)-1-[(8-fluoro-2-methylquinolin-6-yl)methyl]pyrrolidin-3-yl]oxy}-1-oxo-2,3-dihydro-1H-isoindol-2-yl)piperidine-2,6-dione] | 0.0032 µM | 25.35 | 0.00104 µM | 7.555
9 | O=C1CCC(N2Cc3cc(O[C@H]4CCN(Cc5cc6cccc(F)c6cn5)C4)ccc3C2=O)C(=O)N1 (stereo partly drawn) [3-(5-{[(3S)-1-[(8-fluoroisoquinolin-3-yl)methyl]pyrrolidin-3-yl]oxy}-1-oxo-2,3-dihydro-1H-isoindol-2-yl)piperidine-2,6-dione] | 0.0244 µM | 30.295 | 0.00532 µM | 10.49
10 | CN1CCCc2cc(CN3CC[C@H](Oc4ccc5c(c4)CN(C4CCC(=O)NC4=O)C5=O)C3)cnc21 (stereo partly drawn) [3-(5-{[(3S)-1-[(8-methyl-5,6,7,8-tetrahydro-1,8-naphthyridin-3-yl)methyl]pyrrolidin-3-yl]oxy}-1-oxo-2,3-dihydro-1H-isoindol-2-yl)piperidine-2,6-dione] | > 10 µM | 58 | 0.0191 µM | 79.28
11 | O=C1CCC(N2Cc3cc(O[C@H]4CCN(Cc5cc6ccccc6nn5)C4)ccc3C2=O)C(=O)N1 (stereo partly drawn) [3-(5-{[(3S)-1-[(cinnolin-3-yl)methyl]pyrrolidin-3-yl]oxy}-1-oxo-2,3-dihydro-1H-isoindol-2-yl)piperidine-2,6-dione] | 0.0663 µM | 26.03 | 0.0125 µM | 8.97

The next lines start with results.

Row | EC50 (MKN45 cells) | 293T-LentiX WEE1-ePL Degradation 4 hr (Ymin) (WEE1) | DC50 (WEE1) | Compound | MKN45 Cell Prolif. 120 hr (Ymin-Obs) (MKN45 cells)
12 | 0.185 µM | 43.45 | 0.0133 µM | O=C1CCC(N2Cc3cc(O[C@H]4CCN(Cc5cc6c(F)cccc6cn5)C4)ccc3C2=O)C(=O)N1 (stereo partly drawn) [3-(5-{[(3S)-1-[(5-fluoroisoquinolin-3-yl)methyl]pyrrolidin-3-yl]oxy}-1-oxo-2,3-dihydro-1H-isoindol-2-yl)piperidine-2,6-dione] | 53.33
13 | 0.309 µM | 31.52 | 0.012 µM | O=C1CCC(N2Cc3cc(O[C@H]4CCN(Cc5cnc6cccc(F)c6c5)C4)ccc3C2=O)C(=O)N1 (stereo partly drawn) [3-(5-{[(3S)-1-[(5-fluoroquinolin-3-yl)methyl]pyrrolidin-3-yl]oxy}-1-oxo-2,3-dihydro-1H-isoindol-2-yl)piperidine-2,6-dione] | 35.14
14 | 0.833 µM | 61 | 0.0285 µM | COc1cncc(CN2CC[C@H](Oc3ccc4c(c3)CN(C3CCC(=O)NC3=O)C4=O)C2)c1C (stereo partly drawn) [3-(5-{[(3S)-1-[(5-methoxy-4-methylpyridin-3-yl)methyl]pyrrolidin-3-yl]oxy}-1-oxo-2,3-dihydro-1H-isoindol-2-yl)piperidine-2,6-dione] | 59.99
15 | 3.32 µM | 37.55 | 0.0614 µM | COc1cncc(CN2CC[C@H](Oc3ccc4c(c3)CN(C3CCC(=O)NC3=O)C4=O)C2)c1 (stereo partly drawn) [3-(5-{[(3S)-1-[(5-methoxypyridin-3-yl)methyl]pyrrolidin-3-yl]oxy}-1-oxo-2,3-dihydro-1H-isoindol-2-yl)piperidine-2,6-dione] | 48.12
16 | 0.037 µM | 26.805 | 0.00531 µM | Cc1cccc2ncc(CN3CC[C@H](Oc4ccc5c(c4)CN(C4CCC(=O)NC4=O)C5=O)C3)cc12 (stereo partly drawn) [3-(5-{[(3S)-1-[(5-methylquinolin-3-yl)methyl]pyrrolidin-3-yl]oxy}-1-oxo-2,3-dihydro-1H-isoindol-2-yl)piperidine-2,6-dione] | 12.09
17 | 0.0336 µM | 29.6 | 0.00938 µM | Cc1ccc2ncc(CN3CC[C@H](Oc4ccc5c(c4)CN(C4CCC(=O)NC4=O)C5=O)C3)cc2c1 (stereo partly drawn) [3-(5-{[(3S)-1-[(6-methylquinolin-3-yl)methyl]pyrrolidin-3-yl]oxy}-1-oxo-2,3-dihydro-1H-isoindol-2-yl)piperidine-2,6-dione] | 13.08
18 | 0.0248 µM | 28.82 | 0.00493 µM | O=C1CCC(N2Cc3cc(O[C@H]4CCN(Cc5cc6ccc(F)cc6cn5)C4)ccc3C2=O)C(=O)N1 (stereo partly drawn) [3-(5-{[(3S)-1-[(7-fluoroisoquinolin-3-yl)methyl]pyrrolidin-3-yl]oxy}-1-oxo-2,3-dihydro-1H-isoindol-2-yl)piperidine-2,6-dione] | 10.88
19 | 0.425 µM | 34 | 0.0651 µM | CN1CCc2cc(CN3CC[C@H](Oc4ccc5c(c4)CN(C4CCC(=O)NC4=O)C5=O)C3)cnc2C1 (stereo partly drawn) [3-(5-{[(3S)-1-[(7-methyl-5,6,7,8-tetrahydro-1,7-naphthyridin-3-yl)methyl]pyrrolidin-3-yl]oxy}-1-oxo-2,3-dihydro-1H-isoindol-2-yl)piperidine-2,6-dione] | 11.9
20 | 0.118 µM | 32.22 | 0.00641 µM | Cc1cccc2cc(CN3CC[C@H](Oc4ccc5c(c4)CN(C4CCC(=O)NC4=O)C5=O)C3)ncc12 (stereo partly drawn) [3-(5-{[(3S)-1-[(8-methylisoquinolin-3-yl)methyl]pyrrolidin-3-yl]oxy}-1-oxo-2,3-dihydro-1H-isoindol-2-yl)piperidine-2,6-dione] | 19.68
21 | 0.0328 µM | 26.65 | 0.0125 µM | O=C1CCC(N2Cc3cc(O[C@H]4CCN(Cc5ccc6nnccc6c5)C4)ccc3C2=O)C(=O)N1 (stereo partly drawn) [3-(5-{[(3S)-1-[(cinnolin-6-yl)methyl]pyrrolidin-3-yl]oxy}-1-oxo-2,3-dihydro-1H-isoindol-2-yl)piperidine-2,6-dione] | 8.19
